“And” between values parts separate entries of the source, which are not always exact repeats. Identical values can stand only once. Like-named read-outs stand apart in the source and are kept apart here.
How the values were obtained:
[1] = Half-life / conversion of dinalbuphine sebacoyl ester in dog blood; type: in vitro ADME; details: for Elimination half-life: n = 3, mean ± S.E.
Procedure: (a) Dinalbuphine sebacoyl ester was dissolved in acetonitrile, the concentration was 12.5 mg/ml.
(b) 200 ml of whole blood collected from rats given dinalbuphine sebacoyl ester, and anticoagulant was added.

human body = test: Analgesic duration of sebacoyl dinalbuphine calculated for the human body; type: in vivo; details: 125 μM/23 kg
Procedure: Therefore, the analgesic effect could be calculated on 4-5 days at 125 μM/23 kg to human body for sebacoyl dinalbuphine.
Besides, such parenteral volume was not ideal for a single dose. However, this invention made a development. By diluting a single dose of sebacoyl dinalbuphine in 7.15 ml sesame oil form, parenteral administration could give the analgesic effect maintained 4 to 5 days. In other words, the analgesic effect was extended […] for a single dose of intramuscularly injected sebacoyl dinalbuphine at only 7 ml oil vehicle.

[2] = Pharmacokinetic study of long acting preparation in Beagle dogs; type: in vivo, Beagle dog; details: for CL/F: read-out: CLt (converted); for Vd/F: read-out: Vss
Procedure: Six Beagle dogs were used. Five Beagle dogs were intramuscularly injected with 30 mg/kg long acting sebacoyl dinalbuphine ester parenteral administration respectively, and another one was injection with 100 mg/kg long acting sebacoyl dinalbuphine ester oily parenteral administration. Blood samples were collected through the vein in front limb of dogs at 1, 2, 6, 24, 30, 48, 54, 72, 78, 96, 102, 120, 168, 192 hours. […] Relationship between time and concentration was analyzed by PCNONLIN computer program. Two compartment model and pharmacokinetic parameters were calculated to depicted absorption, distribution, metabolism, and excretion of drugs in dogs.

[3] = Half-life / conversion of dinalbuphine sebacoyl ester in rat blood; type: in vitro ADME; details: for Elimination half-life: n = 3, mean ± S.E.
Procedure: (a) Dinalbuphine sebacoyl ester(SDN) was dissolved in acetonitrile, the concentration was 7.75 mg/ml.
(b) […] of whole blood was collected from rats given dinalbuphine sebacoyl ester, and anticoagulant was added.

[4] = Half-life / conversion of dinalbuphine sebacoyl ester in rabbit blood; type: in vitro ADME; details: for Elimination half-life: n = 3, mean ± S.E.
Procedure: II. For Rabbit Experiments
(a) Dinalbuphine ester sebacoyl ester was dissolved in acetonitrile, the concentration was 5.2 mg/ml.
(b) 150 ml of whole blood collected from rats given dinalbuphine sebacoyl ester, and anticoagulant was added.

Sprague Dawley rats = test: Analgesic effect, cold ethanol bath tail flick test, intramuscular, rats; type: in vivo, rat
Procedure: Sprague Dawley rats(175 to 225 g) were used. Each group consisted of 6 rats and each rats was injected once intramuscularly on the rear leg. […]
The dose for each rat was 25 micromole per kg, intramuscularly.
In the experiment, a circulating cold ethanol bath with a temperature maintained at -20° C. was set up. After dosing, the rat tail(1/3 from the tip) was immersed in the bath. The latency for the rat to flick its tail from the bath was measured to be the nociceptive threshold. The effect of various opium alkaloid preparations can be determined with this test.
The nociceptive effect can be calculated as follows: [formula]
35, 25, 15 minutes before dosing, Male Sprague Dawley rat(175-225 g) was tested to measure the basic response latency. The time to top the experiment was set at 40 seconds to prevent the tail from cold sore. No cold sore were found in 40 sec. Five minutes after the drug was given to the rat, the flick test was performed every 10 minutes or more. […]
(c) Dinalbuphine sebacoyl ester, dose was 7.8125 μ/kg, 31.25 μM/kg, 125 μM/kg.
(d) 50 mg/ml dinalbuphine sebacoyl ester parenteral dosage forms, dinalbuphine sebacoyl ester was prepared in sesame oil.

[5] = Table 7, Dog 2, Dose 24.3 mg/kg
[6] = Table 7, Dog 2, Dose 81.0 mg/kg
[7] = dog, plasma, im, 24.3 mg/kg, Table 7, Dog 2, Dose 24.3 mg/kg
[8] = dog, plasma, im, 30 mg/kg, Mean of 5 dogs, 30 mg/kg i.m.
[9] = dog, plasma, im, 81 mg/kg, Table 7, Dog 2, Dose 81.0 mg/kg
[10] = individual Dog 1 to Dog 5, lines in this order, 30 mg/kg i.m., listed as SDN, 30 mg/kg

O=C(CCCCCCCCC(=O)Oc1ccc2c3c1O[C@H]1[C@@H](O)CC[C@@]4(O)[C@@H](C2)N(CC2CCC2)CC[C@]314)Oc1ccc2c3c1O[C@H]1[C@@H](O)CC[C@@]4(O)[C@@H](C2)N(CC2CCC2)CC[C@]314 [sebacoyl dinalbuphine ester]
Elimination half-life ([1]; dog plasma): 0.463 ± 0.0083 h | Elimination half-life ([1]; dog red blood cell): 0.557 ± 0.0233 h | Elimination half-life ([1]; dog whole blood): 0.508 ± 0.013 h | converted time of 90% into Nalbuphine ([1]; dogs): 95 min | half life ([1]; dogs, HPLC): 0.463 h | duration of analgesic effect calculated for human body (human body): 4 to 5 days | A ([2]; Mean of 5 dogs, 30 mg/kg i.m.): 15.0 µg/mL | AUMC ([2]; Mean of 5 dogs, 30 mg/kg i.m.): 983.2 h^2 μg/ml | Abs. time ([2]; Mean of 5 dogs, 30 mg/kg i.m.): 92.6 h | B ([2]; Mean of 5 dogs, 30 mg/kg i.m.): 0.32 µg/mL | Vc ([2]; Mean of 5 dogs, 30 mg/kg i.m.): 14.84 L/kg | k12 ([2]; Mean of 5 dogs, 30 mg/kg i.m.): 8.51 h⁻¹ | k21 ([2]; Mean of 5 dogs, 30 mg/kg i.m.): 0.28 h⁻¹ | ko ([2]; Mean of 5 dogs, 30 mg/kg i.m.): 180.6 µg/kg/h | α ([2]; Mean of 5 dogs, 30 mg/kg i.m.): 9.98 h⁻¹ | A [2, 5]: 14.1 µg/mL | AUC/D [2, 5]: 0.478 kg·h/mL | AUMC [2, 5]: 915 h^2 ng/ml | Abs. time [2, 5]: 95.6 h | B [2, 5]: 0.22 µg/mL | Vc [2, 5]: 10.21 L/kg | k12 [2, 5]: 5.53 h⁻¹ | k21 [2, 5]: 0.13 h⁻¹ | ko [2, 5]: 149.9 µg/kg/h | α [2, 5]: 6.85 h⁻¹ | A [2, 6]: 59.0 µg/mL | AUC/D [2, 6]: 0.488 kg·h/mL | AUMC [2, 6]: 5026 h^2 ng/ml | Abs. time [2, 6]: 168.0 h | B [2, 6]: 0.51 µg/mL | Vc [2, 6]: 10.21 L/kg | k12 [2, 6]: 8.99 h⁻¹ | k21 [2, 6]: 0.11 h⁻¹ | ko [2, 6]: 354.2 µg/kg/h | α [2, 6]: 10.73 h⁻¹ | AUC [2, 7]: 11900 ng·h/mL | CL/F [2, 7]: 1.21 mL/h/kg | bioavailability ([2]; dog, plasma, im, 24.3 mg/kg, Table 7, Dog 2, Dose 24.3 mg/kg, read-out: F): 59% | MRT ([2]; dog, plasma, im, 24.3 mg/kg, Table 7, Dog 2, Dose 24.3 mg/kg, read-out: MRT): 78.8 h | Vd/F [2, 7]: 450 L/kg | k el ([2]; dog, plasma, im, 24.3 mg/kg, Table 7, Dog 2, Dose 24.3 mg/kg, read-out: k10 (converted)): 0.000336 s⁻¹ | half-life ([2]; dog, plasma, im, 24.3 mg/kg, Table 7, Dog 2, Dose 24.3 mg/kg, read-out: t1/2,α (converted)): 0.1 h | half-life ([2]; dog, plasma, im, 24.3 mg/kg, Table 7, Dog 2, Dose 24.3 mg/kg, read-out: t1/2,β (converted)): 30.6 h | k el ([2]; dog, plasma, im, 24.3 mg/kg, Table 7, Dog 2, Dose 24.3 mg/kg, read-out: β (converted)): 6.39e-06 s⁻¹ | AUC [2, 8]: 13600 ng·h/mL | CL/F [2, 8]: 1.22 mL/h/kg | Cmax ([2]; dog, plasma, im, 30 mg/kg, Mean of 5 dogs, 30 mg/kg i.m., read-out: Cmax): 149 ng/mL | bioavailability ([2]; dog, plasma, im, 30 mg/kg, Mean of 5 dogs, 30 mg/kg i.m., read-out: F): 63.1% | MRT ([2]; dog, plasma, im, 30 mg/kg, Mean of 5 dogs, 30 mg/kg i.m., read-out: MRT): 73.2 h | Vd/F [2, 8]: 574 L/kg | k el ([2]; dog, plasma, im, 30 mg/kg, Mean of 5 dogs, 30 mg/kg i.m., read-out: k10 (converted)): 0.000339 s⁻¹ | half-life ([2]; dog, plasma, im, 30 mg/kg, Mean of 5 dogs, 30 mg/kg i.m., read-out: t1/2,α (converted)): 0.09 h | half-life ([2]; dog, plasma, im, 30 mg/kg, Mean of 5 dogs, 30 mg/kg i.m., read-out: t1/2,β (converted)): 27.7 h | k el ([2]; dog, plasma, im, 30 mg/kg, Mean of 5 dogs, 30 mg/kg i.m., read-out: β (converted)): 8.33e-06 s⁻¹ | AUC ([2]; dog, plasma, im, 30 mg/kg, individual Dog 1 to Dog 5, lines in this order, 30 mg/kg i.m.): 9730 ng·h/mL | MRT ([2]; dog, plasma, im, 30 mg/kg, individual Dog 1 to Dog 5, lines in this order, 30 mg/kg i.m., read-out: MRT): 84.3 h | AUC [2, 9]: 36200 ng·h/mL | CL/F [2, 9]: 1.64 mL/h/kg | Cmax ([2]; dog, plasma, im, 81 mg/kg, Table 7, Dog 2, Dose 81.0 mg/kg, read-out: Cmax): 204 ng/mL | bioavailability ([2]; dog, plasma, im, 81 mg/kg, Table 7, Dog 2, Dose 81.0 mg/kg, read-out: F): 73.4% | MRT ([2]; dog, plasma, im, 81 mg/kg, Table 7, Dog 2, Dose 81.0 mg/kg, read-out: MRT): 127 h | Vd/F [2, 9]: 861 L/kg | k el ([2]; dog, plasma, im, 81 mg/kg, Table 7, Dog 2, Dose 81.0 mg/kg, read-out: k10 (converted)): 0.000456 s⁻¹ | half-life ([2]; dog, plasma, im, 81 mg/kg, Table 7, Dog 2, Dose 81.0 mg/kg, read-out: t1/2,α (converted)): 0.07 h | half-life ([2]; dog, plasma, im, 81 mg/kg, Table 7, Dog 2, Dose 81.0 mg/kg, read-out: t1/2,β (converted)): 41.9 h | k el ([2]; dog, plasma, im, 81 mg/kg, Table 7, Dog 2, Dose 81.0 mg/kg, read-out: β (converted)): 4.72e-06 s⁻¹ | bioavailability ([2]; dog, plasma, im, Beagle dogs, intramuscular, read-out: bioavailability): ~63% | half-life ([2]; dog, plasma, im, Beagle dogs, intramuscular, read-out: half life for excretion (converted)): ~30 h | A [2, 10]: 20.9 μg/ml and 14.1 μg/ml (2×) and 9.5 μg/ml and 16.5 μg/ml | AUMC [2, 10]: 934.4 h^2 μg/ml and 915.0 h^2 μg/ml and 886.2 h^2 μg/ml and 1217.4 h^2 μg/ml and 1063.0 h^2 μg/ml | Abs. time [2, 10]: 164.5 h and 95.6 h (2×) and 49.3 h and 58.0 h | B [2, 10]: 0.46 µg/mL and 0.22 µg/mL and 0.32 µg/mL and 0.36 µg/mL and 0.21 µg/mL | Cmax [2, 10]: 59 ng/mL and 112 ng/mL and 197 ng/mL and 255 ng/mL and 123 ng/mL | F [2, 10]: 87.9% and 40.4% and 59.6% and 68.8% | MRT [2, 10]: 61.1 h and 62.7 h and 79.1 h | Vc [2, 10]: 13.88 L/kg and 10.21 L/kg and 14.95 L/kg and 10.65 L/kg and 24.50 L/kg | Vss [2, 10]: 360.9 L/kg and 428.1 L/kg and 303.6 L/kg and 1325 L/kg | k12 [2, 10]: 6.16 h⁻¹ and 5.53 h⁻¹ and 21.55 h⁻¹ and 3.89 h⁻¹ and 5.43 h⁻¹ | k21 [2, 10]: 0.25 h⁻¹ and 0.13 h⁻¹ and 0.78 h⁻¹ and 0.14 h⁻¹ and 0.10 h⁻¹ | ko [2, 10]: 129.9 µg/kg/h and 149.9 µg/kg/h and 199.1 µg/kg/h and 249.5 µg/kg/h and 174.9 µg/kg/h | t1/2,β [2, 10]: 10.94 h and 30.61 h and 28.64 h and 30.99 h and 37.26 h | α [2, 10]: 8.54 h⁻¹ and 6.85 h⁻¹ and 23.02 h⁻¹ and 4.76 h⁻¹ and 6.74 h⁻¹ | order of absorption ([2]; injection oil vehicle, intramuscular): zero order | kinetic linearity with dose ([2]; two doses in the same dog): linear kinetic | Elimination half-life ([3]; rat plasma): 2.8 min | Elimination half-life ([3]; rat red blood cell): 2.3 ± 0.6 min | Elimination half-life ([3]; rat whole blood): 2.2 ± 0.5 min | converted time of 90% into Nalbuphine ([3]; rats): 10 min | half life ([3]; rats, HPLC): 2.8 min | Elimination half-life ([4]; rabbit plasma): 0.116 ± 0.0005 h | Elimination half-life ([4]; rabbit red blood cell): 0.437 ± 0.08 h | Elimination half-life ([4]; rabbit whole blood): 0.248 ± 0.0217 h | converted time of 90% into Nalbuphine ([4]; rabbits): 25 min | half life ([4]; rabbits, HPLC): 7.0 min | dose dependence of analgesic effect (Sprague Dawley rats; FIG. 9, rats, intramuscular, 7.8125, 31.25, 125 μM/kg): proportional to the dose administered | time to which 50% analgesic effect was extended (Sprague Dawley rats; FIG. 10, intramuscular, 125 μM/kg): 88 h | analgesic effect relative to Nalbuphine hydrochloride (Sprague Dawley rats; intramuscular): 8.8 times | duration of analgesic effect (Sprague Dawley rats; rats, intramuscular, dose below 125 μM/kg): 4 to 5 days
